Consider six molecules from patent US9133230B2, “Hydrazone derivatives having potent antitumor activity toward multi-drug resistant tumor cells” (THE UNITED STATES OF AMERICA AS REPRESENTED BY THE …, priority 2011, dated 2015).

One data set concerns breast cancer cell lines. Description: NCI 60 human tumor cell line screen, breast. The following applies: Homo sapiens, arithmetic mean of two to nine cancer cell lines, read-out: Inhibitory concentration GI50, breast. The data set is classed as cell-based. The source says: (§1) Selected compounds were submitted for testing in the organ-specific panel of human tumor cell lines at the National Cancer Institute, Bethesda, Md. This screen utilized 60 human tumor cell lines, representing leukemia, melanoma, and cancers of the lung, colon, brain, ovary, kidney, prostate, and breast (Boyd, M. R., “Status of the NCl preclinical antitumor drug discovery screen”. In Principles and practice of oncology updates; De Vita, V. T., Jr. Hellman, S., Rosenberg, S. A., Eds.; Lippincott: Philadelphia, Pa., 1989; Vol. 3, pp 1-12).
(§2) The MG MID value is the average of the GI50 values for all the cell lines tested for drug concentrations in the range of 10^−4-10^−8 M (See website domain: dtp.nci.nih.gov/dtp).

The subject of another data set is CNS cancer cell lines. Put plainly: NCI 60 human tumor cell line screen, CNS. The note with it: Homo sapiens, arithmetic mean of two to nine cancer cell lines, read-out: Inhibitory concentration GI50, CNS. It counts as cell-based.
Source text: as §1, §2

A further data set relates to colon cancer cell lines. Description: NCI 60 human tumor cell line screen, colon. The data set is classed as cell-based. The following applies: Homo sapiens, arithmetic mean of two to nine cancer cell lines, read-out: Inhibitory concentration GI50, colon.
Source text: as §1, §2

The subject of data set [1] is human colon carcinoma HCT-15. Put plainly: MTS cytotoxicity assay, HCT-15. It counts as cell-based. As to the method: (§3) In order to obtain information about the growth-inhibiting action of hydrazones reported in the present invention on tumor cells, growth inhibition was assessed for the following human tumor cell lines: human myelogenous leukemia K562, human cervical adenocarcinoma HeLa, human colon adenocarcinoma Caco-2, human colon carcinoma HT-29, human colon carcinoma HCT-15, and human breast carcinoma MCF-7.
(§4) The K562, HeLa, HT-29, HCT-15, Caco-2, and MCF-7 cell lines were obtained from the American type Culture Collection (ATCC, Manassas, Va.). K562 cells were maintained in RPMI 1640 medium (Gibco/Life Technologies, Gaithersburg, Md.) containing 10% heat-inactivated fetal bovine serum (FBS) (Atlanta Biologicals, Atlanta, Ga.) and 10000 U/L penicillin and 50 mg/L streptomycin. HeLa, HT-29, HCT-15, Caco-2 and MCF-7 cells were maintained in MEM with Earl's balanced salts, 10% FBS, penicillin, and streptomycin as above. Logarithmically growing HT-29, Caco-2, and MCF-7 cells were incubated with 0.05% trypsin containing 1 mM EDTA at 37° C. for about 5 min until cells were nonadherent and formed a single cell suspension. Trypsin activity was neutralized by adding 20-fold excess of the serum-containing medium. Cells were cultured at 37° C. in an atmosphere of air and 5% CO2.
(§5) Cytotoxicity assays were conducted by tetrazolium reduction of 3-(4,5-dimethylthiazol-2-yl)-5-(3-carboxymethoxyphenyl)-2-(4-sulfophenyl)-2H-tetrazolium (MTS) with N-methylphenazonium methyl sulfate (PMS) (CellTiter Assay, Promega, Madison, Wis.). Logarithmically growing cells were plated in 0.1 mL aliquots in 96-well microtiter plates. Cells were plated at an initial density of about 5000 cells/mL and allowed to acclimatize for 24 h. Cell suspensions were treated with various dilutions of compounds in triplicate, mixed well, and allowed to incubate for 48 h at 37° C. in an atmosphere of air and 5% CO2. To the cell suspension was added 20 μL of tetrazolium reagent, the mixture was incubated for 2 h at 37° C. in an atmosphere of air and 5% CO2, and absorbance at 490 nm was read by microplate reader. Control plates with serial dilutions of cell types were counted as a control for the assay. In all cases, controls indicated a linear response versus cell number, R^2≧0.99.
For orientation: Formazan colour is commonly taken as a measure of viable cells.

Another data set concerns melanoma cell lines. Description: NCI 60 human tumor cell line screen, melanoma. It counts as cell-based. The following applies: Homo sapiens, arithmetic mean of two to nine cancer cell lines, read-out: Inhibitory concentration GI50, melanoma.
Source text: as §1, §2

Data set [2] relates to 60 human tumor cell lines. Put plainly: NCI 60 human tumor cell line screen, all cell lines. The data set is classed as cell-based.
Source text: as §1, §2

The subject of a further data set is leukemia cell lines. Put plainly: NCI 60 human tumor cell line screen, leukemia. It counts as cell-based. The following applies: Homo sapiens, arithmetic mean of two to nine cancer cell lines, read-out: Inhibitory concentration GI50, leukemia.
Source text: as §1, §2

The subject of data set [3] is ovarian cancer cell lines. Description: NCI 60 human tumor cell line screen, ovarian. It counts as cell-based. The following applies: Homo sapiens, arithmetic mean of two to nine cancer cell lines, read-out: Inhibitory concentration GI50, ovarian.
Source text: as §1, §2

Data set [4] has as its system human colon adenocarcinoma Caco-2. Put plainly: MTS cytotoxicity assay, Caco-2. The data set is classed as cell-based. As to the method: as §3, §4, §5
The subject of data set [5] is human colon carcinoma HT-29. Description: MTS cytotoxicity assay, HT-29. It counts as cell-based. As to the method:
as §3, §4, §5

Another data set concerns renal cancer cell lines. Description: NCI 60 human tumor cell line screen, renal. It counts as cell-based. The following applies: Homo sapiens, arithmetic mean of two to nine cancer cell lines, read-out: Inhibitory concentration GI50, renal.
Source text: as §1, §2

In data set [6] the test system is HL60-VCR. Put plainly: MTS cytotoxicity on MDR tumor cells, HL60-VCR. The data set is classed as cell-based. The note with it: HL60/VCR, Vincristine (VCR) resistant, 72 hr incubation.
For data set [7], the system named is human breast carcinoma MCF-7. Put plainly: MTS cytotoxicity assay, MCF-7. It counts as cell-based. As to the method:
as §3, §4, §5

For data set [8], the system named is human cervical adenocarcinoma HeLa. Description: MTS cytotoxicity assay, HeLa. It counts as cell-based. The following applies: 48 h incubation. As to the method:
as §3, §4, §5

Data set [9] concerns prostate cancer cell lines. Description: NCI 60 human tumor cell line screen, prostate. It counts as cell-based. The note with it: Homo sapiens, arithmetic mean of two to nine cancer cell lines, read-out: Inhibitory concentration GI50, prostrate.
Source text: as §1, §2

A further data set concerns HL60. Put plainly: MTS cytotoxicity on MDR tumor cells, HL60. The data set is classed as cell-based. The note with it: Homo sapiens, HL-60, Vincristine (VCR) sensitive, 72 hr incubation.
The test system of data set [10] is human myelogenous leukemia K562. Put plainly: MTS cytotoxicity assay, K562. It counts as cell-based. As for the experimental part:
as §3, §4, §5

Data set [11] concerns nonsmall cell lung cancer cell lines. Description: NCI 60 human tumor cell line screen, NSCL. The following applies: Homo sapiens, arithmetic mean of two to nine cancer cell lines, read-out: Inhibitory concentration GI50, NSCL. The data set is classed as cell-based.
Source text: as §1, §2

For data set [12], the system named is HL60-VCR. The following applies: MDR cell line characterisation; cited from earlier work.
The test system of a further data set is KB-A1000. The following applies: MDR cell line characterisation; cited from earlier work.
Where [13] appears, read: Homo sapiens, HCT-15, 48 h incubation.
[14] abbreviates: Homo sapiens, Caco-2, 48 h incubation.
Setting [15] is: Homo sapiens, HT-29, 48 h incubation.
Where [16] appears, read: Homo sapiens, MCF7, 48 h incubation.
The mark [17] stands for this setting: Homo sapiens, K562, 48 h incubation.

Turning to `CC(C)=NNc1ncnc2c1ncn2C1O[C@H](CO)[C@@H](O)[C@H]1O` (stereo partly drawn) [I-12, (2R,3S,4R)-2-(hydroxymethyl)-5-(6-(2-(propan-2-ylidene)hydrazinyl)-9H-purin-9-yl)tetrahydrofuran-3,4-diol], the GI50 worked out at 751 nM in the data set with breast cancer cell lines; 1200 nM in the data set on CNS cancer cell lines; 497 nM in the data set on colon cancer cell lines; 2800 nM in [1] (setting [13]); 1900 nM in the data set on melanoma cell lines; 1270 nM with leukemia cell lines. Besides, the GI50 in data set [3] worked out at 447 nM; in [4] (setting [14]), 200 nM; in data set [5] (setting [15]), 1600 nM; with renal cancer cell lines, 516 nM; in the data set with HL60-VCR [6] it was 2200 nM; in [7] (setting [16]) it was 200 nM. For the same molecule, the GI50 in data set [8] (Homo sapiens, HeLa) was 600 nM; in data set [9], 363 nM; in the data set with HL60, 1800 nM; in data set [10] (setting [17]) it was 300 nM; in data set [11], 786 nM. Further, in data set [2] (Homo sapiens, average of the GI50 values for all the cell lines tested, drug concentrations 10^−4-10^−8 M, read-out: MG-MID (mean graph midpoint)), the mean GI50 (MG-MID) amounted to 847 nM. Further, in [2] (NCI screen, by cancer type), the “cells found to be the most sensitive” value was “prostate, ovarian, colon, and renal cancer cell lines”.

Consider `Cc1ccc(C=NNc2ncnc3[nH]cnc23)s1` [I-21, 6-[2-((5-Methylthiophen-2-yl)methylene)hydrazinyl]-9H-purine], for which the GI50 in data set [1] (setting [13]) is 40000 nM; in data set [4] (setting [14]), 39000 nM; in [5] (setting [15]), 35000 nM; in [7] (setting [16]) it was 11000 nM; in [8] (Homo sapiens, HeLa), 38000 nM; in data set [10] (setting [17]) it was 11000 nM.

For the molecule `C(=NNc1ncnc2[nH]cnc12)c1ccc[nH]1` [I-22], the GI50 is 5600 nM in data set [1] (48 h incubation); > 100000 nM in [4] (48 h incubation); 6900 nM in [5] (48 h incubation); 9200 nM in data set [7] (48 h incubation); 12000 nM in data set [8]; 7100 nM in data set [10] (48 h incubation).

For the molecule `COc1cccc2c1C(=O)c1c(O)c3c(c(O)c1C2=O)C[C@@](O)(C(=O)CO)C[C@@H]3O[C@H]1C[C@H](N)[C@H](O)[C@H](C)O1` [doxorubicine], in the data set with HL60-VCR [12], the “resistance expressed by HL60-VCR” value is on record as 8 fold. Moreover, the “resistance expressed by KB-A1000” value with KB-A1000 is on record as 97 fold.

For `CC[C@]1(O)C[C@@H]2CN(CCc3c([nH]c4ccccc34)[C@@](C(=O)OC)(c3cc4c(cc3OC)N(C)[C@H]3[C@@](O)(C(=O)OC)[C@H](OC(C)=O)[C@]5(CC)C=CCN6CC[C@]43[C@@H]65)C2)C1` [vinblastine], the “resistance expressed by HL60-VCR” value in the data set with HL60-VCR [12] is 620 fold. Also, in the data set on KB-A1000, the “resistance expressed by KB-A1000” value is recorded as 43 fold.

In the case of `CC[C@]1(O)C[C@H]2CN(CCc3c([nH]c4ccccc34)[C@@](C(=O)OC)(c3cc4c(cc3OC)N(C=O)[C@H]3[C@@](O)(C(=O)OC)[C@H](OC(C)=O)[C@]5(CC)C=CCN6CC[C@]43[C@@H]65)C2)C1` [vincristine], the “resistance expressed by HL60-VCR” value in the data set with HL60-VCR [12] is 1300 fold.
